Data taken from paper PMC5840343, “Interplay between conformational selection and zymogen activation” (Scientific Reports, 2018).
Values joined by “and” are separate entries in the source; they are usually repeats but may differ in a detail not shown here. Equal values may be shown once. “Also recorded” adds a separate entry of the source. Values belong to the molecule of their own block, whether it stands above or below them.

Key:
[1] = molecular target: T1, meizothrombin (Homo sapiens, UniProt P00734, S568A); assay: Equilibrium intrinsic fluorescence titration of FPR binding
T1 construct: Cleavage at R320 retains the modular structure of prothrombin and generates the active intermediate meizothrombin; Cleavage at R320 generates the active intermediate meizothrombin that retains the modular organization of prothrombin; made in house
From the text: (§1) defined in terms of the intrinsic equilibrium dissociation constant, Kd, and the E*:E ratio k21/k12. Direct and independent determination of Kd,app can be obtained by fluorescence titrations under the same experimental conditions used for stopped-flow measurements. The definition of Kd,app in eq. 3 leads to three useful expressions, i.e.,4 kon≥α22(0)/α2(∞)Kd,app when α2 decreases hyperbolically with [L] as in the case of prothrombin (Fig. 3A),5 kon=α2(0)[α2(∞)+k21]/α2(∞)Kd,app=α2(0)/Kd,app+α2(0)/α2(∞)Kd,appk21 when α2 increases hyperbolically with [L] as in the case of prethrombin-2 (Fig. 3A), and6 kon=α2(0)+k21/Kd,app=α2(0)/Kd,app+1/Kd,appk21 when α2 is independent of [L] as in the case of prethrombin-1 (Fig. 3A). The expression in eq. 4 yields a direct estimate of the lower limit of kon from which the value of k21 and the E*:E ratio can be arrived at with the help of eq. 3 (Table 1). The expressions in eqs 5 and 6, on the other hand, require assumptions to be made on the value of kon to arrive at the value of k21. In both cases, a lower limit for kon is estimated as kon≥α2(0)/Kd,app .

[2] = molecular target: T2, prethrombin-2 (Homo sapiens, UniProt P00734, S568A); assay: as above; conditions: pH 8.0, 15 °C, read-out: Kd,app (direct fluorescence titration)
T2 construct: the protease domain (T272-E579); made in house
From the text: as §1

[3] = molecular target: T3, prethrombin-1 (Homo sapiens, UniProt P00734, S568A); assay: as above; conditions: pH 8.0, 15 °C, read-out: Kd,app (direct fluorescence titration)
T3 construct: generates the intermediate prethrombin-1 (Pre1) composed of kringle-2 and the protease domain; made in house
From the text: as §1

[4] = molecular target: T4, thrombin (Homo sapiens, UniProt P00734, S568A); assay: as above; conditions: for Kd: thrombin
T4 construct: the protease domain composed of the A and B chains; made in house
From the text: as §1

[5] = molecular target: T5, prothrombin (Homo sapiens, UniProt P00734, S568A); assay: as above; conditions: 400 mM ChCl, 50 mM Tris, 0.1% PEG8000, pH 8.0, 15 °C, read-out: Kd,app (direct fluorescence titration)
T5 construct: Gla-domain (A1-A46), kringle-1 (C65-C143), kringle-2 (C170-C248) and the protease domain (T272-E579); made in house
From the text: as §1

[6] = molecular target: T1, meizothrombin; assay: Stopped-flow rapid kinetics of FPR binding to the active site
Method: (§2) Rapid kinetic experiments were conducted on an Applied Photophysics SX20 stopped-flow spectrometer under conditions of excess ligand. The dead time of the mixing cell for this instrument is 0.5–1 ms. Final concentrations of 50–75 nM of thrombin and meizothrombin, or 200–400 nM of prothrombin, prethrombin-1 and prethrombin-2 were used in a buffer containing 400 mM ChCl, 50 mM Tris, 0.1% PEG8000, pH 8.0, at 15 °C. The solution containing the protein was mixed 1:1 with 60 µL solutions of FPR in the same buffer. FPR is the […] analog of the irreversible active site inhibitor H-D-Phe-Pro-Arg-CH2Cl, for which detailed structural information exists on its interaction with the active site of thrombin[47],[61]. Rapid kinetics of FPR binding were studied using an excitation of 295 nm and a cutoff filter at 320 nm. Baselines were measured by mixing the protein into buffer in the absence of ligand. Each kinetic trace for a given ligand concentration was taken as the average of a minimum of six determinations. Traces were fit to single or double exponentials based on the analysis of residuals using software supplied by Applied Photophysics.
(§3) A detailed discussion of ligand binding mechanisms established by rapid kinetics is given elsewhere[25]–[27]. and is briefly summarized below for the sake of completeness. The relevant kinetic scheme for ligand binding to the active site of a trypsin-like protease or zymogen is1 E^∗k12←⟶k21Ekon[L]←⟶koffE:L E* and E depict the partitioning of the ensemble of pre-existing conformations between those with the active site accessible (E) or inaccessible (E*) to ligand binding. The ligand, L, selectively binds to E with a second order rate of association kon. Under conditions where L is in large excess over the macromolecule, the reaction scheme in eq. 1 gives two independent rates of relaxation to equilibrium according to the expression2 2α1,2=k12+k21+kon[L]+koff±(kon[L]+koff−k12−k21)^2+4k21kon[L]
(§4) The fast relaxation, α1, always increases and eventually grows linearly with [L]. Depending on the sign of the expression koff−k12 , the value of the slow relaxation α2 hyperbolically decreases ( koff>k12 ) or increases ( koff<k12 ) with [L], and remains constant when koff=k12 [25]–[27]. The fast relaxation that eventually grows linearly with [L] reflects the binding event. The slow relaxation monitors the conformational transition associated with binding.
(§5) Resolution of all four independent rate constants in the reaction scheme in eq. 1 requires measurements of both relaxations. […] 2 can be resolved unequivocally. When α2 decreases hyperbolically with [L], the lower limit in the plot, α2(0) , measures the value of koff or the sum k12+k21 , whichever is smaller. The upper limit α2(∞) measures the rate for the E* → E transition k12. […] If only α2 is accessible to experimental measurements, estimation of the E*:E ratio requires additional information from the apparent equilibrium dissociation constant3 Kd,app=koff/kon(1+k21/k12)=Kd(1+k21/k12)

[7] = molecular target: T4, thrombin; assay: as above
Method: as §2, §3, §4, §5

[8] = molecular target: T2, prethrombin-2; assay: as above
Method: as §2, §3, §4, §5
as §1, with “The expressions in eqs 5 and 6, on the other hand, require assumptions to be made on the value of kon to arrive at the value of k21. In both cases, a lower limit for kon is estimated as kon≥α2(0)/Kd,app .” left out

[9] = molecular target: T3, prethrombin-1; assay: as above
Method: as §2, §3, §4, §5
as §1, with “The expressions in eqs 5 and 6, on the other hand, require assumptions to be made on the value of kon to arrive at the value of k21. In both cases, a lower limit for kon is estimated as kon≥α2(0)/Kd,app .” left out

[10] = molecular target: T5, prothrombin; assay: as above
Method: as §2, §3, §4, §5
as §1, with “The expressions in eqs 5 and 6, on the other hand, require assumptions to be made on the value of kon to arrive at the value of k21. In both cases, a lower limit for kon is estimated as kon≥α2(0)/Kd,app .” left out

[11] = molecular target: prothrombin mutant R271W (Homo sapiens, UniProt P00734, R314W); assay: Limited proteolysis by chymotrypsin in the absence or presence of argatroban; assay type: biochemical
From the text: (§6) Aliquots of proteolysis mixtures were quenched whit NuPAGE LDS buffer and analyzed by non-reducing SDS-PAGE (4–12% acrylamide). None of the gels were cropped and originals are available in the Supplementary Information. The relative intensity of intact protein gel bands, after Coomassie staining, was estimated by densitometric analysis and fit to single exponential decay over time.

[12] = molecular target: prothrombin mutant R320W (Homo sapiens, UniProt P00734, R363W); assay: as above; assay type: biochemical
From the text: as §6

[13] = molecular target: prothrombin (Homo sapiens, UniProt P00734); assay: Limited proteolysis by subtilisin in the absence or presence of argatroban; assay type: biochemical; conditions: argatroban 500 μM
From the text: as §6

[14] = molecular target: thrombin (Homo sapiens, UniProt P00734); assay: as above; assay type: biochemical; conditions: argatroban 500 μM; pH 7.4, 37 °C
From the text: as §6

[15] = molecular target: prethrombin-2 (Homo sapiens, UniProt P00734); assay: as above; assay type: biochemical; conditions: argatroban 500 μM; pH 7.4, 37 °C
From the text: as §6

[16] = pH 8.0, 15 °C, read-out: Kd,app (direct fluorescence titration)
[17] = active site Ser replaced by Ala, E*→E rate, pH 8.0, 15 °C
[18] = from rate constants, read-out: Kd,app (calculated from eq. 3)

Kd [1, 16]: 510 ± 40 nM
Kd ([1]; read-out: Kd,app from equilibrium measurements): 510 ± 40 nM
Kd [2]: 29000 ± 2000 nM
Kd [3]: 92000 ± 8000 nM
higher affinity of thrombin compared to prothrombin ([4]; ratio of Kd,app, thrombin vs prothrombin): 700 fold
Kd [4, 16]: 280 ± 20 nM
Kd ([4]; read-out: Kd,app from equilibrium measurements of intrinsic fluorescence titration): 280 ± 20 nM
Kd [5]: 190000 ± 20000 nM
k21 ([6]; E→E* rate, pH 8.0, 15 °C): 3.4 ± 0.7 s⁻¹
k12 [6, 17]: 8.8 ± 0.5 s⁻¹
Kd [6, 18]: 440 ± 30 nM
koff ([6]; pH 8.0, 15 °C): 0.8 ± 0.1 s⁻¹
kon ([6]; pH 8.0, 15 °C): 2.5e+06 ± 300000 M⁻¹ s⁻¹
k21 ([7]; E→E* rate, pH 8.0, 15 °C): 3.8 ± 0.8 s⁻¹
k12 [7, 17]: 16 ± 1 s⁻¹
Kd [7, 18]: 290 ± 20 nM
koff ([7]; pH 8.0, 15 °C): 0.6 ± 0.1 s⁻¹
kon ([7]; pH 8.0, 15 °C): 2.6e+06 ± 300000 M⁻¹ s⁻¹
k12 ([8]; prethrombin-2, catalytic Ser replaced by Ala, E*→E rate, pH 8.0, 15 °C): 170 ± 10 s⁻¹
kon ([8]; prethrombin-2, lower estimate from eq. 5, pH 8.0, 15 °C): ≥930000 ± 80000 M⁻¹ s⁻¹
koff ([8]; prethrombin-2, pH 8.0, 15 °C): 27 ± 2 s⁻¹
Kd ([8]; prethrombin-2, under the assumption that kon = 1.5 μM^−1 s^−1, read-out: Kd,app (calculated from eq. 3)): ≥ 29000 nM
k12 ([9]; prethrombin-1, catalytic Ser replaced by Ala, E*→E rate, pH 8.0, 15 °C): 42 ± 2 s⁻¹
kon ([9]; prethrombin-1, lower estimate from eq. 6, pH 8.0, 15 °C): ≥460000 ± 50000 M⁻¹ s⁻¹
koff ([9]; prethrombin-1, pH 8.0, 15 °C): 42 ± 2 s⁻¹
Kd ([9]; prethrombin-1, under the assumption that kon = 1.5 μM^−1 s^−1, read-out: Kd,app (calculated from eq. 3)): ≥ 92000 nM
k21 ([10]; E→E* rate, same buffer, pH 8.0, 15 °C): ≥38 ± 3 s⁻¹
k12 ([10]; catalytic Ser replaced by Ala, E*→E rate, 400 mM ChCl, 50 mM Tris, 0.1% PEG8000, pH 8.0, 15 °C): 6.9 ± 0.3 s⁻¹
Kd ([10]; from rate constants, pH 8.0, 15 °C, read-out: Kd,app (calculated from eq. 3)): ≥ 200000 nM
koff ([10]; koff ≥ α2(0), pH 8.0, 15 °C): ≥45 ± 5 s⁻¹
kon ([10]; lower estimate from eq. 4, pH 8.0, 15 °C): ≥1.5e+06 ± 100000 M⁻¹ s⁻¹
α2(0), limiting value of the slow relaxation ([10]; the smaller between koff or the sum k12 + k21): 45 ± 5 s⁻¹
SMILES: N=C(N)NCCC[C@H](NC(=O)[C@@H]1CCCN1C(=O)[C@H](N)Cc1ccccc1)C(=O)Nc1ccc([N+](=O)[O-])cc1 [FPR, H-D-Phe-Pro-Arg-p-nitroanilide]

kexp of chymotrypsin hydrolysis in the presence of argatroban ([11]; R271W 0.1 mg/ml, argatroban 500 μM, chymotrypsin 1:50 (w/w), pH 7.4, 37 °C): 0.027 ± 0.004 min⁻¹
enhancement of the rate of chymotrypsin hydrolysis ([11]; R271W, presence vs absence of argatroban): 3 fold and > 3 fold
kexp of chymotrypsin hydrolysis in the presence of argatroban ([12]; R320W 0.1 mg/ml, argatroban 500 μM, chymotrypsin 1:50 (w/w), pH 7.4, 37 °C): 0.035 ± 0.007 min⁻¹
enhancement of the rate of chymotrypsin hydrolysis ([12]; R320W, presence vs absence of argatroban): 3 fold and > 3 fold
effect on products of subtilisin proteolysis of prothrombin ([13]; non-reducing SDS-PAGE): prevents accumulation of prethrombin-1
effect on the rate of proteolytic digestion of prothrombin by subtilisin ([13]; pH 7.4, 37 °C): significantly enhanced
enhancement of the rate of prothrombin digestion by subtilisin ([13]; subtilisin 1:1000 (w/w), pH 7.4, 37 °C, densitometry): > 10 fold
SMILES: CC1CNc2c(cccc2S(=O)(=O)N[C@@H](CCCNC(=N)N)C(=O)N2CC[C@@H](C)C[C@@H]2C(=O)O)C1 (some centres unmarked) [argatroban]
effect on subtilisin digestion of thrombin [14]: practically absent; also recorded: no effect
effect on subtilisin digestion of prethrombin-2 [15]: much less pronounced than that of prothrombin
